Laboratory results published in patent US6569878B1, “Substituted 4-amino-thiazol-2-yl compounds as cyclin-dependent kinase inhibitors” (Agouron Pharmaceuticals Inc., priority 1997, dated 2003).

Tests used:
[1] = target: T1, complex of human CDK4 and cyclin D3 (Homo sapiens, UniProt P11802); experiment: Inhibition of CDK4/cyclin D retinoblastoma kinase activity (D-type cyclin is D3); type: biochemical; settings: superscript a: D-type cyclin is D3; apparent Ki; read-out: Ki CDK 4/D
T1 construct: made in house; host or cells: insect cells, co-infected with baculovirus
T1 sequence (P11802 whole entry): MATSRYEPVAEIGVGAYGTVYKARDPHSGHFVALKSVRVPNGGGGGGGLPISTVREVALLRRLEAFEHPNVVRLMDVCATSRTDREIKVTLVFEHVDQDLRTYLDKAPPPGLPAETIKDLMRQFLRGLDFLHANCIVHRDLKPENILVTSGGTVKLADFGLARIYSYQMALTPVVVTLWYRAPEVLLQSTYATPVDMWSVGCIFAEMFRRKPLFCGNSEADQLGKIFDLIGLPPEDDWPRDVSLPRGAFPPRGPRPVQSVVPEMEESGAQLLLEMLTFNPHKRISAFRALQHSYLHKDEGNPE
T1 sequence (P30281 whole entry partner): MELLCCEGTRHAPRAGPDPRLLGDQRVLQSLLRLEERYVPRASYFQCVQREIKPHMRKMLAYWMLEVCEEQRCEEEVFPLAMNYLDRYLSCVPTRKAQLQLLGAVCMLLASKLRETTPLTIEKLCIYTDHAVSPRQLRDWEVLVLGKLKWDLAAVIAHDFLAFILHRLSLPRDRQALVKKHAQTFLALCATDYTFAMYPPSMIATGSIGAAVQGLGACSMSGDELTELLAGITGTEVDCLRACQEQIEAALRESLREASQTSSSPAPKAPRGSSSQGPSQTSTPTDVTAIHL
Procedure, shortened: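 Radiometric assay: [32P]- or [33P]ATP phosphate incorporation into Rb substrate at 30°C for 20 min, stopped with EDTA, filter-captured and phosphorimaged.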

CDK2/cyclin A = target: T2, CDK2/cyclin A (Homo sapiens, UniProt P24941); experiment: Inhibition of CDK2/cyclin A retinoblastoma kinase activity; type: biochemical; settings: read-out: Ki CDK 2/A
T2 construct: made in house; host or cells: CDK2: insect cells (baculovirus); cyclin A: E. coli, then limited proteolysis
Procedure: (§1) Cyclin-dependent kinase activity was measured by quantifying the enzyme-catalyzed, time-dependent incorporation of radioactive phosphate from [^32P]ATP or [^33P]ATP into a protein substrate. Unless noted otherwise, assays were performed in 96-well plates in a total volume of 50 μL, in the presence of 10 mM HEPES (N-[2-hydroxyethyl]piperazine-N′-[2-ethanesulfonic acid]) (pH 7.4), 10 mM MgCl2, 25 μM adenosine triphosphate (ATP), 1 mg/mL ovalbumin, 5 μg/mL leupeptin, 1 mM dithiothreitol, 10 mM β-glycerophosphate, 0.1 mM sodium vanadate, 1 mM sodium fluoride, 2.5 mM ethylene glycol-bis(β-aminoethyl ether)-N,N,N′N′-tetraacetic acid (EGTA), 2% (v/v) dimethylsulfoxide, and 0.03-0.4 μCi [^32/33P]ATP per reaction. Reactions were initiated with enzyme, incubated at 30° C., and terminated after 20 minutes by the addition of ethylenediaminetetraacetic acid (EDTA) to 250 mM. The phosphorylated substrate was then captured on a nitrocellulose or phosphocellulose membrane using a 96-well filtration manifold, and unincorporated radioactivity was removed by repeated washing with 0.85% phosphoric acid. Radioactivity was quantified by exposing the dried membranes to a phosphorimager.
(§2) Apparent Ki values were measured by assaying enzyme activity in the presence of different inhibitor compound concentrations and subtracting the background radioactivity measured in the absence of enzyme. The kinetic parameters (kcat, Km for ATP) were measured for each enzyme under the usual assay conditions by determining the dependence of initial rates on ATP concentration. Inhibition data were fit to an equation for competitive inhibition using Kaleidagraph (Synergy Software), or were fit to an equation for competitive tight-binding inhibition using the software KineTic (BioKin, Ltd.).
CDK2 was purified using published methodology (Rosenblatt et al., “Purification and Crystallization of Human Cyclin-dependent Kinase 2,” J. Mol. Biol., vol. 230, 1993, pp. 1317-1319) from insect cells that had been infected with a baculovirus expression vector. […] Purified, proteolyzed cyclin A was included in the assay at a three- to five-fold molar excess to CDK2. Alternatively, a complex of CDK2 and proteolyzed cyclin A was prepared and purified by gel filtration. The substrate for this assay was the same Rb substrate fragment used for the CDK4 assays, and the methodology of the CDK2/cyclin A and the CDK4/cyclin D3 assays was essentially the same, except that CDK2 was present at 150 nM or 5 nM. Ki values were measured as described above.

[2] = target: T3, human CDK1 (cdc2) and cyclin B (Homo sapiens, UniProt P06493); experiment: Inhibition of CDK1(cdc2)/cyclin B histone H1 kinase activity; type: biochemical; settings: read-out: Ki CDK 1/B
T3 construct: purchased New England Biolabs (Beverly Mass.)
T3 sequence (P06493 whole entry): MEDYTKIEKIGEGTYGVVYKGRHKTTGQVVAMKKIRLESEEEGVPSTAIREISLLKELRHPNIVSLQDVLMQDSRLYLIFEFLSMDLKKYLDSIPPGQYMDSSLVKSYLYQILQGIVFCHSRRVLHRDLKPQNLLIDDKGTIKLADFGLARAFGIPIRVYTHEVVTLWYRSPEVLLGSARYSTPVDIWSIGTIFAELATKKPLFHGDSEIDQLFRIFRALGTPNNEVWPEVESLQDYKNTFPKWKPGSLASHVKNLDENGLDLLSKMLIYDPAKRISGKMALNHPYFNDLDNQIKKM
T3 sequence (P14635 whole entry partner): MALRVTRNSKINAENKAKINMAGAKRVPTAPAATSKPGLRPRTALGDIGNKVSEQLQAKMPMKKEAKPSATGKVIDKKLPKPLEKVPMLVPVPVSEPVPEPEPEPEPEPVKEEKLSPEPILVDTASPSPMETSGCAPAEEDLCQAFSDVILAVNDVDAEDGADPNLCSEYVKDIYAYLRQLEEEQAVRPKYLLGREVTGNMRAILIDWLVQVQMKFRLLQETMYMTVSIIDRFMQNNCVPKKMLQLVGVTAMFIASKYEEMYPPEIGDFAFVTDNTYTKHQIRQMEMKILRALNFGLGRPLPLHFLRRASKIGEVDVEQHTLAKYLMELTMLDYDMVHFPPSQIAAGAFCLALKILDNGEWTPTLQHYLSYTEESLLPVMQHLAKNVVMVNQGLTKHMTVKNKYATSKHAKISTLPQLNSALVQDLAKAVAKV
Procedure: as §1, §2
The complex of human CDK1 (cdc2) and cyclin B was purchased from New England Biolabs (Beverly Mass.). Alternatively, a CDK1/glutathione-S-transferase-cyclin B1 complex was purified using glutathione affinity chromatography from insect cells that had been co-infected with the corresponding baculovirus expression vectors. The assay was executed as described above at 30° C. using 2.5 units of cdc2/cyclin B, 10 μg Histone H1 protein, and 0.1-0.3 μCi [^32/33P]ATP per assay. Phosphorylated histone substrate was captured by microfiltration on a phosphocellulose P81 membrane and quantified using a phosphorimager as described above. Ki values were measured using the described curve-fitting programs.

U2-OS = experiment: Inhibition of cell growth, MTT assay, U2-OS; type: cell-based; settings: for IC50 / IC90: Homo sapiens, U2OS; for % inhibition of growth in parentheses after >25: concentration not given
Procedure: (§3) The water-insoluble purple formazan product was then detected spectrophotometrically. […] Plates were incubated for four hours before addition of inhibitor compounds. Different concentrations of inhibitor compounds were added in 0.5% (v/v) dimethylsulfoxide (15 μL/well), and cells were incubated at 37° C. (5% CO2) for four to six days (depending on cell type). At the end of the incubation, MTT was added to a final concentration of 0.2 mg/mL, and cells were incubated for 4 hours more at 37° C. After centrifugation of the plates and removal of medium, the absorbance of the formazan (solubilized in dimethylsulfoxide) was measured at 540 nm.

Saos-2 = experiment: Inhibition of cell growth, MTT assay, Saos-2; type: cell-based; settings: Saos-2, MTT assay; for IC50 / IC90: Homo sapiens; for % inhibition of growth in parentheses after >25: concentration not given
Procedure: as §3

HCT116 = experiment: Inhibition of cell growth, MTT assay, HCT116; type: cell-based, human; settings: for IC50 / IC90: Homo sapiens, HCT-116; for % inhibition of growth in parentheses after >25: concentration not given
Procedure: as §3

## CNS(=O)(=O)c1ccc(Nc2nc(N)c(C(=O)c3c(F)cccc3F)s2)cc1 [C(108), 4-[4-Amino-5-(2,6-difluoro-benzoyl)-thiazol-2-ylamino]-N-methyl-benzenesulfonamide]
[1]
  Ki: 23 nM
CDK2/cyclin A
  Ki: 6.8 nM
[2]
  Ki: 9 nM
U2-OS
  IC50: 1400 nM
  IC90: 4800 nM
Saos-2
  IC50: 310 nM
  IC90: 3200 nM

## CN1CCN(c2ccc(Nc3nc(N)c(C(=O)c4c(F)cccc4C(F)(F)F)s3)cc2)CC1 [C(100), {4-Amino-2-[4-(4-methyl-piperazin-1-yl)-phenylamino]-thiazol-5-yl}-(2-fluoro-6-trifluoromethyl-phenyl)-methanone]
CDK2/cyclin A
  Ki: 620 nM
[2]
  Ki: 911 nM

## CC(C)(C)OC(=O)N1CCN(c2ccc(Nc3nc(N)c(C(=O)c4c(F)cccc4F)s3)cc2)CC1 [C(101), 4-Amino-2-[4-(1-tert-butoxycarbonyl-piperazine-4-yl)-phenylamino]-thiazol-5-yl-(2,6-difluorophenyl)-methanone]
[1]
  Ki: 103 nM
CDK2/cyclin A
  Ki: 300 nM
[2]
  Ki: 320 nM

## Nc1nc(Nc2ccc(S(=O)(=O)NCC3CCNCC3)cc2)sc1C(=O)c1c(F)cccc1F [J(4), 4-[4-Amino-5-(2,6-difluoro-benzoyl)-thiazol-2-ylamino]-N-piperidin-4-ylmethyl-benzenesulfonamide]
[1]
  Ki: 10.2 nM
CDK2/cyclin A
  Ki: 13.5 nM
[2]
  Ki: 22 nM

## CN1CCN(c2ccc(Nc3nc(N)c(C(=O)c4c(Cl)cccc4Cl)s3)cc2)CC1 [C(71), {4-Amino-2-[4-(4-methyl-piperazin-1-yl)-phenylamino]-thiazol-5-yl}-(2,6-dichloro-phenyl)-methanone]
CDK2/cyclin A
  Ki: 482 nM
[2]
  Ki: 827 nM

## Nc1nc(Nc2ccc(S(N)(=O)=O)cc2)sc1C(=O)c1c(Cl)cc(C(F)(F)F)cc1Cl [C(38), 4-[4-Amino-5-(2,6-dichloro-4-trifluoromethyl-benzoyl)-thiazol-2-ylamino]-benzenesulfonamide]
[1]
  Ki: 25 nM
CDK2/cyclin A
  Ki: 39 nM
HCT116
  IC50: 4300 nM
  IC90: 19000 nM
U2-OS
  IC50: 11000 nM
  IC90: > 25000 nM
  % inhibition of growth in parentheses after >25: 87%
Saos-2
  IC50: 3000 nM
  IC90: > 25000 nM
  % inhibition of growth in parentheses after >25: 80%

## Cc1ccc(C(=O)c2sc(Nc3cccnc3)nc2N)c(C)c1 [C(21), [4-Amino-2-(pyridin-3-ylamino)-thiazol-5-yl]-(2,4-dimethyl-phenyl)-methanone]
[1]
  Ki: 117 nM
CDK2/cyclin A
  Ki: 480 nM
HCT116
  IC50: 9000 nM
  IC90: 22000 nM
U2-OS
  IC50: 22000 nM
  IC90: > 25000 nM
  % inhibition of growth in parentheses after >25: 57%
Saos-2
  IC50: 13000 nM
  IC90: 23000 nM

## Nc1nc(Nc2ccc(C(=O)C3COC(=O)[C@H]3N)cc2)sc1C(=O)c1c(Cl)cncc1Cl (stereo partly drawn) [C(88), trans-3RS-Amino-4RS-{4-[4-amino-5-(3,5-dichloropyridine-4-carbonyl)-thiazol-2-ylamino]-benzoyl}-dihydro-furan-2-one]
[1]
  Ki: 65 nM
CDK2/cyclin A
  Ki: 305 nM
HCT116
  IC50: 19000 nM
  IC90: > 25000 nM
  % inhibition of growth in parentheses after >25: 70%
U2-OS
  IC50: > 25000 nM
  % inhibition of growth in parentheses after >25: 26%
Saos-2
  IC50: 22000 nM
  IC90: > 25000 nM
  % inhibition of growth in parentheses after >25: (56%)

## CN1CCN(S(=O)(=O)c2ccc(Nc3nc(N)c(C(=O)c4c(F)cccc4F)s3)cc2)CC1 [C(116), {4-Amino-2-[4-(4-methyl-piperazine-1-sulfonyl)-phenylamino]-thiazol-5-yl}-(2,6-difluoro-phenyl)-methanone]
[1]
  Ki: 121 nM
CDK2/cyclin A
  Ki: 120 nM
[2]
  Ki: 77 nM

## Nc1nc(Nc2ccc(N3CCOCC3)cc2)sc1C(=O)c1c(Cl)cncc1Cl [C(69), {4-Amino-2-[4-morpholin-4-yl-phenylamino]-thiazol-5-yl}-(3,5-dichloro-pyridin-4-yl)-methanone]
[1]
  Ki: 20 nM
CDK2/cyclin A
  Ki: 638 nM
HCT116
  IC50: 5000 nM
  IC90: 15000 nM
U2-OS
  IC50: 14000 nM
  IC90: ≥ 26000 nM
Saos-2
  IC50: 12000 nM
  IC90: ≥ 26000 nM

## CC(=O)N1CCN(c2ccc(Nc3nc(N)c(C(=O)c4c(Cl)cccc4Cl)s3)cc2)CC1 [C(97), 2-[4-(1-Acetyl-piperazin-4-yl)-phenylamino]-4-amino-thiazol-5-yl-(2,6-dichlorophenyl)-methanone]
[1]
  Ki: 8.5 nM
CDK2/cyclin A
  Ki: 392 nM
HCT116
  IC50: 3900 nM
  IC90: 11000 nM
U2-OS
  IC50: 10000 nM
  IC90: 21000 nM
Saos-2
  IC50: 9000 nM
  IC90: 20000 nM

## Cc1cc(N)sc1C(=O)c1sc(Nc2ccc(S(N)(=O)=O)cc2)nc1N [D(5)]
[1]
  Ki: 159 nM
CDK2/cyclin A
  Ki: 233 nM
HCT116
  IC50: 1900 nM
  IC90: 5000 nM
U2-OS
  IC50: > 25000 nM
Saos-2
  IC50: 17000 nM
  IC90: 25000 nM

## Cc1ccc(C(=O)c2sc(Nc3ccc4nc[nH]c4c3)nc2N)c(C)c1 [C(20), [4-Amino-2-(1H-benzoimidazol-6-ylamino)-thiazol-5-yl]-(2,4-dimethyl-phenyl)-methanone]
[1]
  Ki: 22 nM
CDK2/cyclin A
  Ki: 145 nM
HCT116
  IC50: 6100 nM
  IC90: 25000 nM
U2-OS
  IC50: 6500 nM
  IC90: > 25000 nM
  % inhibition of growth in parentheses after >25: (74%)
Saos-2
  IC50: 4900 nM
  IC90: 13000 nM

## NC(=O)N1CCN(c2ccc(Nc3nc(N)c(C(=O)c4c(F)cccc4F)s3)cc2)CC1 [C(123), {4-Amino-2-[4-(4-carbamoyl-piperazin-1-yl)-phenylamino]-thiazol-5-yl}-(2,6-difluoro-phenyl)-methanone]
[1]
  Ki: 15.4 nM
CDK2/cyclin A
  Ki: 164 nM
HCT116
  IC50: 2700 nM
  IC90: 7000 nM
U2-OS
  IC50: 7100 nM
  IC90: 12000 nM
Saos-2
  IC50: 2900 nM
  IC90: 5700 nM

## CC(=O)Nc1ccc(Cl)c(C(=O)c2sc(Nc3ccc4nc[nH]c4c3)nc2N)c1Cl [C(82), N-{3-[4-Amino-2-(1H-benzoimidazol-6-ylamino)-thiazole-5-carbonyl]-2,4-dichloro-phenyl}-acetamide]
[1]
  Ki: 44.2 nM
CDK2/cyclin A
  Ki: 467 nM
HCT116
  IC50: > 25000 nM
  % inhibition of growth in parentheses after >25: 1%
U2-OS
  IC50: > 25000 nM
  % inhibition of growth in parentheses after >25: 1%
Saos-2
  IC50: > 25000 nM
  % inhibition of growth in parentheses after >25: 15%

## CN(C)S(=O)(=O)c1ccc(Nc2nc(N)c(C(=O)c3c(F)cccc3F)s2)cc1 [C(109), 4-[4-Amino-5-(2,6-difluoro-benzoyl)-thiazol-2-ylamino]-N,N-dimethyl-benzenesulfonamide]
[1]
  Ki: 83 nM
CDK2/cyclin A
  Ki: 28 nM
[2]
  Ki: 35 nM
U2-OS
  IC50: 4700 nM
  IC90: 19000 nM
Saos-2
  IC50: 1500 nM
  IC90: 14000 nM

## CN1CCN(c2ccc(Nc3nc(N)c(C(=O)c4c(F)cccc4F)s3)cc2)CC1 [C(80), {4-Amino-2-[4-(4-methyl-piperazin-1-yl)-phenylamino]-thiazol-5-yl}-(2,6-difluoro-phenyl)-methanone]
CDK2/cyclin A
  Ki: 220 nM
[2]
  Ki: 325 nM
